SMILES strings stand for the structures.

In assay [1] the test system is primary rodent pancreatic islets of Langerhans. In words: GDIS assay in primary rodent pancreatic islets. The settings on record: male SD rat islets; different concentrations; compared to 11.2 mM glucose alone; 90 min. It counts as cell-based. The source says:
Because activation of GPR40 is known to result in insulin secretion which is dependent on high glucose concentrations, two separate assay systems (insulinoma cell line and primary rodent islets) are developed to further characterize compounds that are known to increase intracellular calcium in the GPR40 primary assay discussed above.
GDIS assays using primary rodent pancreatic islets of Langerhans are also used to characterize exemplified compounds. Pancreatic islets are isolated from male SD (Sprague Dawley) rats by collagenase digestion and Histopaque density gradient separation. The islets are cultured overnight in RPMI-1640 medium with GlutaMAXn (stabilized, dipeptide form of L-glutamine (Invitrogen catalog #61870-010)) to facilitate recovery from the isolation process. Insulin secretion is determined by a 90 minute incubation in EBSS (Earle's Balances Salt Solution) buffer in a 48-well plate. Briefly, islets are first preincubated in EBSS with 2.8 mM glucose for 30 min and are then transferred to a 48-well plate (four islets/well) containing 150 μl 2.8 mM glucose and incubated with 150 μl of EBSS with 2.8 or 11.2 mM glucose in the presence or absence of test compounds for 90 minutes. The buffer is removed from the wells at the end of the incubation and assayed for insulin levels using the Rat Insulin ELISA kit (Mercodia). […]

The next assay concerns the target T1, Gal4 PPARα (Homo sapiens, UniProt Q07869).
T1 construct: expressed in transfected cells; host or cells: CV1 (African green monkey kidney)
T1 sequence (Q07869 239-466 limits assumed): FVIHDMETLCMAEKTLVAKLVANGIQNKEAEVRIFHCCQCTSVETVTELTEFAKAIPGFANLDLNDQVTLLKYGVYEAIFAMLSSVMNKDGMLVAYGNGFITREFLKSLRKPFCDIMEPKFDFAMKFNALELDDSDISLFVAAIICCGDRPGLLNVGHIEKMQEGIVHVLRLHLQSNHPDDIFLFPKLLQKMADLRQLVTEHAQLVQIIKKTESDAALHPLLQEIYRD
In words: Gal4 PPARα reporter functional assay in CV1 cells. The assay is classed as cell-based. Particulars: examined up to 10 μM, luciferase reporter, 24 hours. The source says: Gal4 PPARα, Gal4 PPARδ, and PPARγ reporter functional assays are also used to monitor the selectivity of exemplified compounds. CV1 cells, which are derived from the renal tissue of an African green monkey, are transfected with various receptor and reporter plasmids using Fugene. For the Gal4 PPARα and PPARδ assays, a reporter plasmid containing five tandem copies of the yeast transcription protein Gal4 response element, cloned upstream of a firefly luciferase gene driven by the major late promoter of adenovirus, is transfected together with a Simian Virus 40 (SV40) driven plasmid constitutively expressing a hybrid protein containing the Gal4 DNA binding domain (DBD), and either the PPARα or PPARδ ligand binding. For the PPARγ assay, plasmids encoding PPARγ and RXRα, both driven by a cytomegalovirus (CMV) promoter are transfected together with a plasmid containing luciferase reporter cDNA driven by the TK promoter and a receptor response element (2×PPRE). Cells are transfected in T225 cm^2 cell culture flasks in DMEM media with 5% charcoal-stripped FBS. […] After 24 hours incubation with compounds, cells are lysed and luciferase activity is determined as a measure of receptor activation by luminescence. […] The maximum percent stimulation is determined versus maximum stimulation obtained with 10 μM of an appropriate PPAR agonist reference compound. […]
In general terms: A reporter such as luciferase makes a cellular process visible.

Turning to `CC#C[C@@H](CC(=O)O)c1ccc(OCc2ccc(CN3CCC4(C=Cc5ccccc54)CC3)s2)cc1` [Example 1, (3S)-3-[4-[[5-(Spiro[indene-1,4′-piperidine]-1′-ylmethyl)-2-thienyl]methoxy]phenyl]hex-4-ynoic acid], in assay [1], the increase in insulin is listed as 2- to 4 fold. Besides, at Gal4 PPARα, the “functional activation of PPARα” value is reported as “No functional activation”.

For the origin of these results see patent publication US8822486B2, “Spiropiperidine compounds” (Eli Lilly and Company, priority 2009, dated 2014).
